Data published in US11083735B2, “Methods for treating sleep disorders, sleep disturbances, and related symptoms using aminosterol compositions” (Enterin, Inc., priority 2017, dated 2021).

Key:
αS = αS (Homo sapiens, UniProt P37840); details: in vitro (Perni et al. 2017); cited from earlier work
[1] = Pharmacokinetics of orally administered squalamine (ENT-01) in Stage 1; type: in vivo, human; details: for AUC0-8 hr / AUC0-16 hr / Tmax (Median Value) / Cmax: Stage 1, oral; for Cmax: squalamine ion, mean
Protocol: Pharmakokinetics: PK data were collected on the 10 patients enrolled in Stage 1 and 10 patients enrolled in Stage 2 to determine the extent of systemic absorption. In Stage 1, PK data were obtained at each visit, pre-medication, at 1, 2, 4, 8 and 24 hours (Table 14). In Stage 2, PK was measured on days 1 and 6 of the randomization period pre-medication, at 1, 2, 4 and 8 hours (Table 15). […] Hao et al. 2003). The mean Cmax, Tmax and T1/2 and AUC of the squalamine ion following squalamine (ENT-01) oral dosing for Stage 1 patients. […] The mean Cmax, Tmax and T1/2 and AUC of the squalamine ion following squalamine (ENT-01) oral dosing for Stage 2 patients. The PK analyses are only approximate, as the lower limit of the validated concentration range was 0.5 ng/ml.

In the case of `CC(C)[C@@H](CC[C@@H](C)[C@H]1CC[C@H]2[C@@H]3[C@H](O)C[C@H]4C[C@@H](NCCCNCCCCN)CC[C@]4(C)[C@H]3CC[C@]12C)OS(=O)(=O)O` (single isomer, unassigned; ent-01) [ENT-01], the “formation of aggregates of αS” value (αS) is listed as “inhibit the formation of aggregates”, the approximate oral bioavailability ([1]; Stage 1, oral dosing up to 200 mg (114 mg/m^2), compared with prior phase 1 IV pharmacokinetic data) is listed as “about 0.1%” and the AUC0-8 hr ([1]; dose 25 mg) is listed as 10.8 ng·h/mL. The AUC0-16 hr ([1]; dose 25 mg) was 19.6 ng·h/mL, the “Tmax (Median Value)” value ([1]; dose 25 mg) was 1.0 h and the Cmax ([1]; dose 25 mg) was 2.84 ng/mL. The AUC0-8 hr ([1]; dose 50 mg) was 18.5 ng·h/mL, the AUC0-16 hr ([1]; dose 50 mg) was 33.1 ng·h/mL and the “Tmax (Median Value)” value ([1]; dose 50 mg) was 2.0 h. For the same compound, the Cmax ([1]; dose 50 mg) was 3.73 ng/mL, the AUC0-8 hr ([1]; dose 75 mg) was 18.4 ng·h/mL and the AUC0-16 hr ([1]; dose 75 mg) was 29.8 ng·h/mL. The “Tmax (Median Value)” value ([1]; dose 75 mg) was 2.0 h, the Cmax ([1]; dose 75 mg) was 4.33 ng/mL and the AUC0-8 hr ([1]; dose 100 mg) was 29.6 ng·h/mL. The AUC0-16 hr ([1]; dose 100 mg) was 51.5 ng·h/mL, the “Tmax (Median Value)” value ([1]; dose 100 mg) was 2.0 h and the Cmax ([1]; dose 100 mg) was 6.18 ng/mL. The AUC0-8 hr ([1]; dose 125 mg) was 43.1 ng·h/mL, the AUC0-16 hr ([1]; dose 125 mg) was 77.7 ng·h/mL and the “Tmax (Median Value)” value ([1]; dose 125 mg) was 2.0 h. The Cmax ([1]; dose 125 mg) was 9.63 ng/mL, the AUC0-8 hr ([1]; dose 150 mg) was 31.5 ng·h/mL and the AUC0-16 hr ([1]; dose 150 mg) was 64.0 ng·h/mL. The “Tmax (Median Value)” value ([1]; dose 150 mg) was 2.0 h, the Cmax ([1]; dose 150 mg) was 6.27 ng/mL and the AUC0-8 hr ([1]; dose 175 mg) was 49.7 ng·h/mL. The AUC0-16 hr ([1]; dose 175 mg) was 91.2 ng·h/mL, the “Tmax (Median Value)” value ([1]; dose 175 mg) was 2.0 h and the Cmax ([1]; dose 175 mg) was 10.3 ng/mL. For the same compound, the AUC0-8 hr ([1]; dose 200 mg) was 78.3 ng·h/mL, the AUC0-16 hr ([1]; dose 200 mg) was 157 ng·h/mL and the “Tmax (Median Value)” value ([1]; dose 200 mg) was 2.0 h. The Cmax ([1]; dose 200 mg) was 15.1 ng/mL and the oral bio-availability ([1]; estimated from PK of intravenously administered squalamine in prior clinical studies) was “less than 0.3%”.
